From patent US9006433B2, “Substituted pyrimidines” (Merck Sharp & Dohme Corp., priority 2010, dated 2015) come the findings set out here.

The experiment addresses T1, PHD2 (Homo sapiens, UniProt Q9GZT9).
T1 construct: FLAG-tagged full length PHD2 expressed in and purified from baculovirus-infected Sf9 cells; FLAG; made in house; host or cells: baculovirus-infected Sf9 cells
The experiment can be described thus: PHD2 inhibition assay (time resolved fluorescence, HIF-1α peptide hydroxylation / VHL complex detection). The note with it: FLAG-tagged full length PHD2; 0.2 μM 2-oxoglutarate, 0.5 μM HIF-1α peptide. The format is biochemical. The procedure: To each well of a 96-well plate was added 1 μL of test compound in DMSO and 20 μl of assay buffer (50 mM Iris pH 7.4/0.01% Tween-20/0.1 mg/ml bovine serum albumin/10 μM ferrous sulfate/1 mM sodium ascorbate/20 μg/ml catalase) containing 0.15 μg/ml FLAG-tagged full length PHD2 expressed in and purified from baculovirus-infected Sf9 cells. After a 30 min preincubation at room temperature, the enzymatic reactions were initiated by the addition of […] of substrates (final concentrations of 0.2 μM 2-oxoglutarate and 0.5 μM HIF-1α peptide biotinyl-DLDLEMLAPYIPMDDDFQL (SEQ ID NO:1)). After 2 hr at room temperature, the reactions were terminated and signals were developed by the addition of a 25 μL quench/detection mix to a final concentration of 1 mM ortho-phenanthroline, 0.1 mM EDTA, 0.5 nM anti-(His)6 LANCE reagent (Perkin-Elmer Life Sciences), 100 nM AF647-labeled streptavidin (Invitrogen), and 2 μg/ml (His)-6-VHL complex (S. Tan(2001) Protein Expr. Purif. 21, 224-234). The ratio of time resolved fluorescence signals at 665 and 620 nm was determined, and percent inhibition was calculated relative to an uninhibited control sample run in parallel.

T1 sequence (Q9GZT9 whole entry, species assumed): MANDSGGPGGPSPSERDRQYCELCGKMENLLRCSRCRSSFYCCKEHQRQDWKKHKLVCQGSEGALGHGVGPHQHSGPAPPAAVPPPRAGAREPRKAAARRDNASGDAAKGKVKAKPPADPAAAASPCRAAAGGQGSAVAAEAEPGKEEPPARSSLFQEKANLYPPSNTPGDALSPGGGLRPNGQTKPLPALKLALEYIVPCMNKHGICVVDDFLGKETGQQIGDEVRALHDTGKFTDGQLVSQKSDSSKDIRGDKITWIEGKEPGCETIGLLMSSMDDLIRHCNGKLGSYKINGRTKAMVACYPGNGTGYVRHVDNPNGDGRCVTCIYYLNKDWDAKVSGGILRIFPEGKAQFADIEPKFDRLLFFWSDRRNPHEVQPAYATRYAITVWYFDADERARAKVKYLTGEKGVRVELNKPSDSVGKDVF

The compound `O=C(Cc1ccc(Cl)cc1)Nc1cnc(-n2cccn2)nc1O` [Compound 3-25, 2-(4-chlorophenyl)-N-(4-hydroxy-2-(1H-pyrazol-1-yl)pyrimidin-5-yl)acetamide] registered an IC50 of 0.5 to 20 nM. To `O=C(Nc1cnc(-n2cccn2)nc1O)OC1CCCC1` [Compound 5-11, cyclopentyl 4-hydroxy-2-(1H-pyrazol-1-yl)pyrimidin-5-ylcarbamate] belongs 20 to 100 nM.

Take `O=C(Nc1cnc(-n2cccn2)nc1O)C1CCCCC1` [Compound 3-46, N-(4-hydroxy-2-(1H-pyrazol-1-yl)pyrimidin-5-yl)cyclohexanecarboxamide]: the IC50 was in the range of 20 to 100 nM. Compound `O=C(Nc1cnc(-c2ccccn2)nc1O)C(c1ccccc1)c1ccccc1` [Compound 10-1, N-(4-hydroxy-2-(pyridin-2-yl)pyrimidin-5-yl)-2,2-diphenylacetamide] had an IC50 of 20 to 100 nM. Compound `O=C(Nc1cnc(-n2cccn2)nc1O)C1Cc2ccccc2C1` [Compound 3-55, 2,3-dihydro-N-(4-hydroxy-2-(1H-pyrazol-1-yl)pyrimidin-5-yl)-1H-indene-2-carboxamide] showed an IC50 of 0.5 to 20 nM. For the compound `O=S(=O)(Nc1cnc(-n2cccn2)nc1O)c1ccc(Cl)cc1` [Compound 4-1, 4-chloro-N-[4-hydroxy-2-(1H-pyrazol-1-yl)pyrimidin-5-yl]benzenesulfonamide], the IC50 fell in the range of 20 to 100 nM.

In turn, `CC(C)C(C(=O)Nc1cnc(-n2cccn2)nc1O)c1ccccc1` (centres unmarked) [Compound 3-35, N-(4-hydroxy-2-(1H-pyrazol-1-yl)pyrimidin-5-yl)-3-methyl-2-phenylbutanamide] came in with an IC50 of 20 to 100 nM. To `COc1ccc(CC(=O)Nc2cnc(-n3cccn3)nc2O)cc1` [Compound 3-32, N-(4-hydroxy-2-(1H-pyrazol-1-yl)pyrimidin-5-yl)-2-(4-methoxyphenyl)acetamide] belongs 0.5 to 20 nM; to `O=C(NCc1ccccc1)Nc1cnc(-n2cccn2)nc1O` [Compound 5-2, 1-benzyl-3-(4-hydroxy-2-(1H-pyrazol-1-yl)pyrimidin-5-yl)urea], 0.5 to 20 nM; to `CS(=O)(=O)c1ccccc1C(=O)Nc1cnc(-n2cccn2)nc1O` [Compound 3-14, N-(4-hydroxy-2-(1H-pyrazol-1-yl)pyrimidin-5-yl)-2-(methylsulfonyl)benzamide], 100 to 10000 nM. The figure for `CC(C)(C)OC(=O)N1CCC(CC(=O)Nc2cnc(-n3cccn3)nc2O)CC1` [Compound 3-50, tert-butyl4-((4-hydroxy-2-(1H-pyrazol-1-yl)pyrimidin-5-ylcarbamoyl)methyl)piperidine-1-carboxylate] is 20 to 100 nM; for `CC(C)(C)NC(=O)Nc1cnc(-n2cccn2)nc1O` [Compound 5-6, ert-butyl-3-(4-hydroxy-2-(1H-pyrazol-1-yl)pyrimidin-5-yl)urea] it is 100 to 10000 nM; for `Oc1nc(-n2cccn2)ncc1-c1cnn(Cc2ccccc2)c1` [Compound 11-2, 5-(1-benzyl-1H-pyrazol-4-yl)-2-(1H-pyrazol-1-yl)pyrimidin-4-ol] it is 100 to 10000 nM. To `O=C(Nc1cnc(-n2cccn2)nc1O)c1cccc(C(F)(F)F)c1` [Compound 3-4, 3-(trifluoromethyl)-N-(4-hydroxy-2-(1H-pyrazol-1-yl)pyrimidin-5-yl)benzamide] belongs 0.5 to 20 nM; to `O=C(Nc1cnc(-n2cccn2)nc1O)c1ccccc1Cl` [Compound 3-1, 2-chloro-N-(4-hydroxy-2-(1H-pyrazol-1-yl)pyrimidin-5-yl)benzamide], 0.5 to 20 nM. Consider `O=C(Nc1cnc(-n2cccn2)nc1O)c1cccc(-c2ccccc2)c1` [Compound 3-18, N-[4-hydroxy-2-(1H-pyrazol-1-yl)pyrimidin-5-yl]biphenyl-3-carboxamide], for which the IC50 lay in the range of 20 to 100 nM.

Compound `COc1cccc(CC(=O)Nc2cnc(-n3cccn3)nc2O)c1` [Compound 3-31, N-(4-hydroxy-2-(1H-pyrazol-1-yl)pyrimidin-5-yl)-2-(3-methoxyphenyl)acetamide] displayed an IC50 of 0.5 to 20 nM.

For orientation: IC50 means the concentration that inhibits the measured activity by half.
